Results on five compounds are retold here after publication PMC8550792, “Evolution of kinase polypharmacology across HSP90 drug discovery” (Cell Chemical Biology, 2021).

Broadly, the IC50 is the point on the concentration scale where inhibition reaches its midpoint.

Common to all, as to type: biochemical
In assay [1] the target is T1, 382 unique human kinases (Homo sapiens, UniProt Q9BQI3).
T1 construct: purchased Reaction Biology (HotSpot contract assay)
The experiment in a line: biochemical. Particulars: EIF2AK1; read-out: Control Compound IC50*.

Assay [2] concerns the target T2, 382 unique human kinases (Homo sapiens, UniProt Q15118).
T2 construct: purchased Reaction Biology (HotSpot contract assay)
The experiment in a line: biochemical. The settings on record: PDK1/PDHK1; [ATP] 50 µM; read-out: Control Compound IC50*.

The target in assay [3] is T3, 382 unique human kinases (Homo sapiens, UniProt Q9NYL2).
T3 construct: purchased Reaction Biology (HotSpot contract assay)
In words: biochemical. The settings on record: ZAK/MLTK; [ATP] 50 µM; read-out: Control Compound IC50*.

For assay [4], the target named is T4, 382 unique human kinases (Homo sapiens, UniProt P10398).
T4 construct: purchased Reaction Biology (HotSpot contract assay)
T4 sequence (P10398 1-606): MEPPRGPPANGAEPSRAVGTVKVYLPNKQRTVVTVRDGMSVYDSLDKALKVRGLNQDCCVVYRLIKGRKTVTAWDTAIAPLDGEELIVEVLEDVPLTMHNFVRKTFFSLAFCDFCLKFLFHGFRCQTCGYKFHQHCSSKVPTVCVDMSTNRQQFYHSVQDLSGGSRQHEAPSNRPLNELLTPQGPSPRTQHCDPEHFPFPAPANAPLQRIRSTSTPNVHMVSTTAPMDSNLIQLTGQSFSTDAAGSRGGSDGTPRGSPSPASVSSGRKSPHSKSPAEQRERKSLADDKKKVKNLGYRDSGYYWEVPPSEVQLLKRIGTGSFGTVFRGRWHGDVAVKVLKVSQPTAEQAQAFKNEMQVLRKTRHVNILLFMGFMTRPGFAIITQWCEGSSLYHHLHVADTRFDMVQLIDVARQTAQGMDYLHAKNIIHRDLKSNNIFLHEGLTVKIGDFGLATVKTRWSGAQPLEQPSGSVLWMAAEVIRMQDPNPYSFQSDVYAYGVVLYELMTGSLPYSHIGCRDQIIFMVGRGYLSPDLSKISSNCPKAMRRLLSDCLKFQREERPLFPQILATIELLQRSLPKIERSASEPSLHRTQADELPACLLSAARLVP
The experiment in a line: biochemical. The settings on record: ARAF; read-out: Control Compound IC50*.

For assay [5], the target named is T5, 382 unique human kinases (Homo sapiens, UniProt P68400).
T5 construct: purchased Reaction Biology (HotSpot contract assay)
The experiment in a line: biochemical. The settings on record: CK2a; read-out: Control Compound IC50*.

In assay [6] the target is T6, 382 unique human kinases (Homo sapiens, UniProt Q9Y572).
T6 construct: purchased Reaction Biology (HotSpot contract assay)
In words: biochemical. The settings on record: RIPK3; [ATP] 2.5 µM; read-out: Control Compound IC50*.

The target of assay [7] is T7, 382 unique human kinases (Homo sapiens, UniProt Q15120).
T7 construct: purchased Reaction Biology (HotSpot contract assay)
The experiment in a line: biochemical. Particulars: PDK3/PDHK3; [ATP] 30 µM; read-out: Control Compound IC50*.

Assay [8] has as its system 382 unique human kinases. The experiment in a line: biochemical. The settings on record: read-out: Control Compound IC50*.
The target of assay [9] is T8, 382 unique human kinases (Homo sapiens, UniProt Q9NR20).
T8 construct: purchased Reaction Biology (HotSpot contract assay)
T8 sequence (Q9NR20 1-520): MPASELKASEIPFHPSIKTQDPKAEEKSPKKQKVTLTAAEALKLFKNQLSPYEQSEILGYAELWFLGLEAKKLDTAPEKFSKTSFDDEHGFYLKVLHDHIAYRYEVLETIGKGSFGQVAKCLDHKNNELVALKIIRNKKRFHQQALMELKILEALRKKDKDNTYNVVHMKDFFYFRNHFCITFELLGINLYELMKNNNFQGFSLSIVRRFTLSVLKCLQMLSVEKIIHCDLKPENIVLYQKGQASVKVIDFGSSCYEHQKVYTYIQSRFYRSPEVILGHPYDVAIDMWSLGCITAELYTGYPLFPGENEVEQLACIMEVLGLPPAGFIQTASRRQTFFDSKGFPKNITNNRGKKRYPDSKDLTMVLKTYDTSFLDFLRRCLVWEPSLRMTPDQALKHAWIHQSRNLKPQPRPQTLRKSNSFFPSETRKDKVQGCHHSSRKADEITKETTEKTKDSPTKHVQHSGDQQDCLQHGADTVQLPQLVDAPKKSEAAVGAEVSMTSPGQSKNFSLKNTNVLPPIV
The experiment in a line: biochemical. The settings on record: DYRK4; read-out: Control Compound IC50*.

In assay [10] the target is T9, 382 unique human kinases (Homo sapiens, UniProt Q15119).
T9 construct: purchased Reaction Biology (HotSpot contract assay)
In words: biochemical. Particulars: PDK2/PDHK2; [ATP] 15 µM; read-out: Control Compound IC50*.

In assay [11] the target is T10, 382 unique human kinases (Homo sapiens, UniProt Q16654).
T10 construct: purchased Reaction Biology (HotSpot contract assay)
The experiment in a line: biochemical. The settings on record: PDK4/PDKH4; [ATP] 30 µM; read-out: Control Compound IC50*.

Assay [12] addresses T11, PDK2/PDHK2 (Homo sapiens, UniProt Q15119).
T11 construct: purchased Reaction Biology (HotSpot contract assay)
The experiment in a line: HotSpot in vitro kinase radiometric assay. Particulars: PDK2/PDHK2; ATP 15 uM; read-out: IC50 (M) Control Cmpd. The procedure:
(§1) Accordingly, we selected five additional representative HSP90 inhibitors, at least one from each chemical class, including both synthetic inhibitors and natural products. […]
(§2) This radioisotope binding assay was designed to directly detect the true product without the use of modified substrates, coupling enzymes, or detection antibodies thus enabling to directly measure inhibition of catalytic activity. Test or control compounds were incubated with kinase, substrate, cofactors, and radioisotope-labeled ATP (32P-ɣ-ATP or 33P-ɣ-ATP). The reaction mixtures were then spotted onto filter papers, which bind the radioisotope-labeled catalytic product.

For assay [13], the target named is T12, PDK4/PDKH4 (Homo sapiens, UniProt Q16654).
T12 construct: purchased Reaction Biology (HotSpot contract assay)
In words: HotSpot in vitro kinase radiometric assay. Particulars: PDK4/PDKH4; ATP 30 uM; read-out: IC50 (M) Control Cmpd. The procedure: as §1, §2

Assay [14] addresses T13, 382 unique human kinases (Homo sapiens, UniProt Q9HC98).
T13 construct: purchased Reaction Biology (HotSpot contract assay)
In words: biochemical. Particulars: NEK6; read-out: Control Compound IC50*.

In assay [15] the target is T14, 382 unique human kinases (Homo sapiens, UniProt Q8TDX7).
T14 construct: purchased Reaction Biology (HotSpot contract assay)
The experiment in a line: biochemical. The settings on record: NEK7; read-out: Control Compound IC50*.

The target of assay [16] is T15, 382 unique human kinases (Homo sapiens, UniProt Q6IQ55).
T15 construct: purchased Reaction Biology (HotSpot contract assay)
The experiment in a line: biochemical. The settings on record: TTBK2; read-out: Control Compound IC50*.

For assay [17], the target named is T16, 382 unique human kinases (Homo sapiens, UniProt Q86Z02).
T16 construct: purchased Reaction Biology (HotSpot contract assay)
The experiment in a line: biochemical. Particulars: HIPK1; read-out: Control Compound IC50*.

Assay [18] concerns the target T17, 382 unique human kinases (Homo sapiens, UniProt Q92918).
T17 construct: purchased Reaction Biology (HotSpot contract assay)
In words: biochemical. Particulars: kinase HPK1/MAP4K1; read-out: Control Compound IC50*.

In assay [19] the target is T18, 382 unique human kinases (Homo sapiens, UniProt P41279).
T18 construct: purchased Reaction Biology (HotSpot contract assay)
In words: biochemical. Particulars: COT1/MAP3K8; read-out: Control Compound IC50*.

In assay [20] the target is T19, 382 unique human kinases (Homo sapiens, UniProt Q99986).
T19 construct: purchased Reaction Biology (HotSpot contract assay)
T19 sequence (Q99986 1-396): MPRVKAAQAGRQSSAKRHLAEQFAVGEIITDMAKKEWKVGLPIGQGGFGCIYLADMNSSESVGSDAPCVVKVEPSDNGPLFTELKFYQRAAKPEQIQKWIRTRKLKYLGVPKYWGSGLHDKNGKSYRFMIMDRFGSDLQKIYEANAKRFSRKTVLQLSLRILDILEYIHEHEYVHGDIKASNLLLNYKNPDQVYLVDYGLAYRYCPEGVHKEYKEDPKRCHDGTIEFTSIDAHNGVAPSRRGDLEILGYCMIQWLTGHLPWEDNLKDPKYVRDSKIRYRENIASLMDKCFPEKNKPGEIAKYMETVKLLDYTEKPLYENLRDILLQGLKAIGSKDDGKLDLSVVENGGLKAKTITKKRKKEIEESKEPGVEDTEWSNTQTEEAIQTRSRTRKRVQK
In words: biochemical. Particulars: VRK1; read-out: Control Compound IC50*.

For assay [21], the target named is T20, 382 unique human kinases (Homo sapiens, UniProt Q86Y07).
T20 construct: purchased Reaction Biology (HotSpot contract assay)
In words: biochemical. The settings on record: kinase VRK2; read-out: Control Compound IC50*.

Where two headings read alike, the source gives them in different places.

T2 sequence (Q15118 29-436): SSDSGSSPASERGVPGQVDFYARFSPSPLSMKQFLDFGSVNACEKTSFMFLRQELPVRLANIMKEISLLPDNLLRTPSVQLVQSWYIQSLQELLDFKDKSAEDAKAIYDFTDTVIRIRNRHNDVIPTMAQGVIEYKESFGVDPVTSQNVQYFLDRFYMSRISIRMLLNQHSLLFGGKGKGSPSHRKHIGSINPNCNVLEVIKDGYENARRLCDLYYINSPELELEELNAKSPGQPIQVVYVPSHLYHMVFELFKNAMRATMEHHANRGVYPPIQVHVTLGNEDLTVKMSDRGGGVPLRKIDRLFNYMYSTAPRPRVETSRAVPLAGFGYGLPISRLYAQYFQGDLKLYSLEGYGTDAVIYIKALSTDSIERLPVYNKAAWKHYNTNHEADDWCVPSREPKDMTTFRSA
T13 sequence (Q9HC98 whole entry): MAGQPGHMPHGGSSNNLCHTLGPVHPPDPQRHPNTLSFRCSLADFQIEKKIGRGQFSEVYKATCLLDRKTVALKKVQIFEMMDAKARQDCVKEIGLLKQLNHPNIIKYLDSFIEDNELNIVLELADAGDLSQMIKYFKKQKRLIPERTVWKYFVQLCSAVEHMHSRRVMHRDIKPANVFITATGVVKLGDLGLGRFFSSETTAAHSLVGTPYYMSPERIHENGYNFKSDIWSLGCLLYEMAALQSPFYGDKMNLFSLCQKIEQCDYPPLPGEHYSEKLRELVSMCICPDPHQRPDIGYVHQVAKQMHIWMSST
T1 sequence (Q9BQI3 whole entry): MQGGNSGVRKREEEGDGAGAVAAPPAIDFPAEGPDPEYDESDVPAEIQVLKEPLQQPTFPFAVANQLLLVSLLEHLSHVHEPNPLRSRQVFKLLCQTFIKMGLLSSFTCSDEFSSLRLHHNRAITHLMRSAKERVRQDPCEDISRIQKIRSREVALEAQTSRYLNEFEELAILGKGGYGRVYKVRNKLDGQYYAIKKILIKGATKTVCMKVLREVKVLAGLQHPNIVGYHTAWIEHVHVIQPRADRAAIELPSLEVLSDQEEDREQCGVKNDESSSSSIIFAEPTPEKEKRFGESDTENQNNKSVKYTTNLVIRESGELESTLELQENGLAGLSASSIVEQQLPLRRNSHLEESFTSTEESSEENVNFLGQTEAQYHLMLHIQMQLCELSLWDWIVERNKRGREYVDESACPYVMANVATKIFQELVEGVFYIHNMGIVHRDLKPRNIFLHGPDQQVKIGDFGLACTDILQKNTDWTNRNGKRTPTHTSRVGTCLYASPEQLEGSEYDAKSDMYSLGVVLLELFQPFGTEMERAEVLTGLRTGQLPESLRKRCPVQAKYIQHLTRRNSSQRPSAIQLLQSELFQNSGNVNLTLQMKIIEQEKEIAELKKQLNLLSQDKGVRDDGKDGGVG
T5 sequence (P68400 whole entry): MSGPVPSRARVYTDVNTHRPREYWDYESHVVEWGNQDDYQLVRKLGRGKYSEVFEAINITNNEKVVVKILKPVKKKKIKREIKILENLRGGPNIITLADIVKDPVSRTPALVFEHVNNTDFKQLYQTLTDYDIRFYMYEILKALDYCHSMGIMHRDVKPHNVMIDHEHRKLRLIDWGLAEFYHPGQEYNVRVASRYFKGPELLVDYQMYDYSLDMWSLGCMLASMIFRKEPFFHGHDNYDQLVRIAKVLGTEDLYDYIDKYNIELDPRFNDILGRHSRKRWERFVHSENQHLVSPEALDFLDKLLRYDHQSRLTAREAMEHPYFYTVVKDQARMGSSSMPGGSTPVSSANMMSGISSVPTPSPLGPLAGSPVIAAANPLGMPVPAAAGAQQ
T14 sequence (Q8TDX7 whole entry): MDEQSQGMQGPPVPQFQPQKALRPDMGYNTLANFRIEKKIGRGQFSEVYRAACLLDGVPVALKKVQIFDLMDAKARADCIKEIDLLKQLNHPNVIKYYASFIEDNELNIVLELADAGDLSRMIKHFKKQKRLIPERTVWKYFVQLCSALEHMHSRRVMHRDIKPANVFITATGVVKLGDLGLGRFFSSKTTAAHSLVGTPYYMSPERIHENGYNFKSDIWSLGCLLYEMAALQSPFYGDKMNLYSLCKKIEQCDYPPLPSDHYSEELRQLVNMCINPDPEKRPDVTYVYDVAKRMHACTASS
T18 sequence (P41279 whole entry): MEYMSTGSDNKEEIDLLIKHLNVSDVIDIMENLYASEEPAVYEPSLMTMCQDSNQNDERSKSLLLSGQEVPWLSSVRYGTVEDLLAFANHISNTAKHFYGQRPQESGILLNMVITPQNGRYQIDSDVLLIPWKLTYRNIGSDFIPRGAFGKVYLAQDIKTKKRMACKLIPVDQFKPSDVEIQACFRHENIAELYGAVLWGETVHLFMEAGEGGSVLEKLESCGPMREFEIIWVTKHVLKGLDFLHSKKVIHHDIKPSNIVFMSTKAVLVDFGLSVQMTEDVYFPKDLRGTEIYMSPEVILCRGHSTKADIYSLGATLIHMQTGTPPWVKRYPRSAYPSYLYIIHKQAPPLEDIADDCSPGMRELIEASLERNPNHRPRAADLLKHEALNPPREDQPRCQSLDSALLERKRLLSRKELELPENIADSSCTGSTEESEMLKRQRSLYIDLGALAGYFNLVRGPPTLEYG
T17 sequence (Q92918 whole entry): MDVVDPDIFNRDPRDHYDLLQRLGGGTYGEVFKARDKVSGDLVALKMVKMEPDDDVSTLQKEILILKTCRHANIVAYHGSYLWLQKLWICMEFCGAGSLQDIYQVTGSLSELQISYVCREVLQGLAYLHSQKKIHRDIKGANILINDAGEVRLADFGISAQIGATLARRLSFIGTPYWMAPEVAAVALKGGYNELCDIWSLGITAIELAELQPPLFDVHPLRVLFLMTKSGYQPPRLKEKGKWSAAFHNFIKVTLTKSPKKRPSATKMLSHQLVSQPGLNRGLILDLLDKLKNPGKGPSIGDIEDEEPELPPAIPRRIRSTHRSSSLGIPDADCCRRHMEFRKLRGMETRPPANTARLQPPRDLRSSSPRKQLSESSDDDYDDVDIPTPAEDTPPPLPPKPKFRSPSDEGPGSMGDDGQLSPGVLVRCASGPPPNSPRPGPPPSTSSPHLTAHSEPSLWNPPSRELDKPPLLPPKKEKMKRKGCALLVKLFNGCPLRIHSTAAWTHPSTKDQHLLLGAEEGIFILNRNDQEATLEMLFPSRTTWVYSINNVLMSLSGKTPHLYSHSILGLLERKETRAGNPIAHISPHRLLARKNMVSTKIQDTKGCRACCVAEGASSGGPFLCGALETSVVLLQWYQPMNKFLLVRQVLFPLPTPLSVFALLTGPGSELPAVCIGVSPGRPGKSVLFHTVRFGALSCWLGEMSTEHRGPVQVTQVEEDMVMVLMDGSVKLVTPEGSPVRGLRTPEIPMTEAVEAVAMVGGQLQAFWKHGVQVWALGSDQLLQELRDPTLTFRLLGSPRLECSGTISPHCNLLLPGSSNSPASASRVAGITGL
T3 sequence (Q9NYL2 whole entry): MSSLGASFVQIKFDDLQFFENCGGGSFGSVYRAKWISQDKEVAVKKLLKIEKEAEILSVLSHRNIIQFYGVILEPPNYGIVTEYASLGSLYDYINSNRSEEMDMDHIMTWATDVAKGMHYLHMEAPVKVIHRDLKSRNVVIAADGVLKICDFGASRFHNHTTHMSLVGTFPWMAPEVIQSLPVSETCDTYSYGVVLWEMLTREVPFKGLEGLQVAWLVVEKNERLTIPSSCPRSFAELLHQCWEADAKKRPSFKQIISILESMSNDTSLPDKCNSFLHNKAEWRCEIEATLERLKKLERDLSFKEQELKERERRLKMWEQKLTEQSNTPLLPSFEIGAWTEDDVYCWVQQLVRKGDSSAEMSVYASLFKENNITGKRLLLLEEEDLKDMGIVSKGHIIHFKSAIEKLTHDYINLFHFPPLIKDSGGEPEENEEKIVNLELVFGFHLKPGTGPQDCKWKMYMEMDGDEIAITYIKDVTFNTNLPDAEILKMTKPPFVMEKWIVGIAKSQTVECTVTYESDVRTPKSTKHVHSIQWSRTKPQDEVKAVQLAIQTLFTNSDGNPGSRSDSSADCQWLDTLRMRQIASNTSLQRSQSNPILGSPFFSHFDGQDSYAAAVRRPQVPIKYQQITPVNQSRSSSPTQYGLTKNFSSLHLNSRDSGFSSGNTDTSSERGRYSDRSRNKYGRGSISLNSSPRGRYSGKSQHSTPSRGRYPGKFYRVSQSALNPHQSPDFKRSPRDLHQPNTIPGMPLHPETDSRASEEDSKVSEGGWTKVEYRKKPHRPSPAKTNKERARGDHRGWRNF
T7 sequence (Q15120 whole entry): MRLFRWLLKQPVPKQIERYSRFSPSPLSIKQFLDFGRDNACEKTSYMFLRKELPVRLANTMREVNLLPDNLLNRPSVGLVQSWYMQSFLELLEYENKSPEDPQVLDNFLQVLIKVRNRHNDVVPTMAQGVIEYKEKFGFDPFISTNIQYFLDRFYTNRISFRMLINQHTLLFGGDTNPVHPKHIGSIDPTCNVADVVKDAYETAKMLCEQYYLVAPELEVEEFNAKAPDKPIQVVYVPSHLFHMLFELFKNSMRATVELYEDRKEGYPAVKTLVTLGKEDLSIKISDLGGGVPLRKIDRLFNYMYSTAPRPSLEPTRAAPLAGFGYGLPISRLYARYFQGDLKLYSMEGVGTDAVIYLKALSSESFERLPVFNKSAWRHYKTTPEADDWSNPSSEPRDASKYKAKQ
T12 sequence (Q16654 whole entry): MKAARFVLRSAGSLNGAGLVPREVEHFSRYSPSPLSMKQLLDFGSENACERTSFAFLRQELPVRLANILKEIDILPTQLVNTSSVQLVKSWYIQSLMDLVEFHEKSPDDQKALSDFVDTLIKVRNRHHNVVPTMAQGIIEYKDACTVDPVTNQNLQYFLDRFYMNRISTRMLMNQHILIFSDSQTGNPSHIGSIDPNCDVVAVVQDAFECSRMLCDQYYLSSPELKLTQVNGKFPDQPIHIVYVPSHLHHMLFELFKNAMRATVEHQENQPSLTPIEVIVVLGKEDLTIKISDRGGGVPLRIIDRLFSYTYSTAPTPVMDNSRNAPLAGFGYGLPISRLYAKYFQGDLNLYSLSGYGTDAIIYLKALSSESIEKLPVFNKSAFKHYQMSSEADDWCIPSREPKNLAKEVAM

As to `Cn1cc(-c2ccc3c(c2)CCN3C(=O)Cc2cccc(C(F)(F)F)c2)c2c(N)ncnc21` [GSK-2606414], the half-inhibitory concentration (IC50) in assay [1] was found to be 92.1 nM.

Regarding `O=C1Nc2ccc(I)cc2/C1=C/c1cc(Br)c(O)c(Br)c1` [GW5074], the concentration for half-maximal inhibition (IC50) is 32.2 µM in [2]; 2620 nM in [3]; 14 nM in assay [4]; 398 nM in assay [5]; 1060 nM in assay [6]; 12.1 µM in assay [7]. Besides, the half-maximal inhibitory concentration (IC50) in [8] (BRAF (R506_K507insVLR)) was determined as […]; in assay [8] (BRAF (T599_V600insT)) it was […]; in [8] (BRAF (d485-489/P490Y)), […]; in assay [8] (BRAF-FAM131B (Fex2Bex9)), […]; in [8] (BRAF-KIAA1549 (Kex15Bex9)), […]; in [8] (BRAF-KIAA1549 (Kex16Bex9)) it was […]. The IC50 in assay [8] (BRAF-SRGAP3 (Sex12Bex9)) came to […]; in [9] it was 1880 nM; in [10] it was 6.61 µM; in [11], 1720 nM; in assay [12], 6.39e-06 M; in [13], 2.51e-06 M.

Regarding `O=C1Nc2ccc3ncsc3c2/C1=C/c1cnc[nH]1` [PKR Inhibitor], the IC50 turned out to be 35.5 µM in assay [14] and 12.4 µM in [15].

In the case of `Oc1ccc(-c2nc(-c3ccncc3)c(-c3ccc(F)cc3)[nH]2)cc1` [SB202190], in assay [16], the half-maximal inhibitory concentration (IC50) worked out at 9.41 µM.

Take Ro-31-8220: the IC50 in assay [17] turned out to be 800 nM; in assay [18] it was 44.3 nM; in assay [19], 7.83 µM; in [20], 528 nM; in assay [21], 9.05 µM.
